Measurements reported in ChEMBL document CHEMBL3046876, “Effect of Buprofezin on Oviposition of Brown Planthopper, Nilaparvata lugens, at Sub-lethal Dose” (1996).

Experiments:
Assay type in all cases: functional
Nilaparvata lugens [1] = experiment: Insecticidal activity against Nilaparvata lugens (brown planthopper) emerged female adult assessed as mortality at 2 ppm measured after 7 days relative to control; conditions: 168 h
Nilaparvata lugens [2] = experiment: Insecticidal activity against Nilaparvata lugens (brown planthopper) fifth-instar nymphs assessed as mortality at 50 ppm measured after 7 days; conditions: 168 h
Nilaparvata lugens [3] = experiment: Effect on hatchability in Nilaparvata lugens (brown planthopper) at 0.08 ppm measured after 7 days relative to control
Nilaparvata lugens [4] = experiment: Effect on hatchability in Nilaparvata lugens (brown planthopper) at 2 ppm measured after 7 days relative to control
Nilaparvata lugens [5] = experiment: Insecticidal activity against Nilaparvata lugens (brown planthopper) fifth-instar nymphs assessed as mortality at 0.00064 ppm measured after 7 days; conditions: 168 h
Nilaparvata lugens [6] = experiment: Insecticidal activity against Nilaparvata lugens (brown planthopper) fifth-instar nymphs assessed as mortality at 0.016 ppm measured after 7 days; conditions: 168 h
Nilaparvata lugens [7] = experiment: Insecticidal activity against Nilaparvata lugens (brown planthopper) emerged female adult assessed as mortality at 10 ppm measured after 7 days relative to control; conditions: 168 h
Nilaparvata lugens [8] = experiment: Effect on development of ovarioles in Nilaparvata lugens (brown planthopper) assessed as number of ovarioles at 0.016 ppm measured after 7 days relative to control
Nilaparvata lugens [9] = experiment: Insecticidal activity against Nilaparvata lugens (brown planthopper) assessed as mortality at 0.016 ppm measured after 7 days relative to control; conditions: 168 h
Nilaparvata lugens [10] = experiment: Effect on hatchability in Nilaparvata lugens (brown planthopper) at 0.4 ppm measured after 7 days relative to control
Nilaparvata lugens [11] = experiment: Insecticidal activity against Nilaparvata lugens (brown planthopper) assessed as mortality at 0.08 ppm measured after 7 days relative to control; conditions: 168 h
Nilaparvata lugens [12] = experiment: Effect on development of ovarioles in Nilaparvata lugens (brown planthopper) assessed as number of ovarioles at 0.4 ppm measured after 7 days relative to control
Nilaparvata lugens [13] = experiment: Insecticidal activity against Nilaparvata lugens (brown planthopper) assessed as mortality at 10 ppm measured after 7 days relative to control; conditions: 168 h
Nilaparvata lugens [14] = experiment: Effect on oviposition in Nilaparvata lugens (brown planthopper) assessed as eggs laid at 10 ppm measured after 7 days relative to control
Nilaparvata lugens [15] = experiment: Insecticidal activity against Nilaparvata lugens (brown planthopper) emerged female adult assessed as mortality at 0.00064 ppm measured after 7 days relative to control; conditions: 168 h
Nilaparvata lugens [16] = experiment: Effect on egg maturity in Nilaparvata lugens (brown planthopper) at 0.00064 ppm measured after 7 days relative to control
Nilaparvata lugens [17] = experiment: Insecticidal activity against Nilaparvata lugens (brown planthopper) assessed as mortality at 0.00064 ppm measured after 7 days relative to control; conditions: 168 h
Nilaparvata lugens [18] = experiment: Effect on life span in Nilaparvata lugens (brown planthopper) adult at 10 ppm measured after 7 days relative to control
Nilaparvata lugens [19] = experiment: Insecticidal activity against Nilaparvata lugens (brown planthopper) assessed as mortality at 0.4 ppm measured after 7 days relative to control; conditions: 168 h
Nilaparvata lugens [20] = experiment: Effect on oviposition in Nilaparvata lugens (brown planthopper) assessed as eggs laid at 0.016 ppm measured after 7 days relative to control
Nilaparvata lugens [21] = experiment: Effect on oviposition in Nilaparvata lugens (brown planthopper) assessed as eggs laid at 0.4 ppm measured after 7 days relative to control
Nilaparvata lugens [22] = experiment: Insecticidal activity against Nilaparvata lugens (brown planthopper) emerged female adult assessed as mortality at 0.0000256 ppm measured after 7 days relative to control; conditions: 168 h
Nilaparvata lugens [23] = experiment: Insecticidal activity against Nilaparvata lugens (brown planthopper) fifth-instar nymphs assessed as mortality at 0.0032 ppm measured after 7 days; conditions: 168 h
Nilaparvata lugens [24] = experiment: Insecticidal activity against Nilaparvata lugens (brown planthopper) assessed as mortality at 2 ppm measured after 7 days relative to control; conditions: 168 h
Nilaparvata lugens [25] = experiment: Insecticidal activity against Nilaparvata lugens (brown planthopper) fifth-instar nymphs assessed as mortality at 2 ppm measured after 7 days; conditions: 168 h
Nilaparvata lugens [26] = experiment: Effect on life span in Nilaparvata lugens (brown planthopper) adult at 0.016 ppm measured after 7 days relative to control
Nilaparvata lugens [27] = experiment: Insecticidal activity against Nilaparvata lugens (brown planthopper) emerged female adult assessed as mortality at 0.000128 ppm measured after 7 days relative to control; conditions: 168 h
Nilaparvata lugens [28] = experiment: Effect on oviposition in Nilaparvata lugens (brown planthopper) assessed as eggs laid at 0.08 ppm measured after 7 days relative to control
Nilaparvata lugens [29] = experiment: Effect on hatchability in Nilaparvata lugens (brown planthopper) at 0.016 ppm measured after 7 days relative to control
Nilaparvata lugens [30] = experiment: Effect on egg maturity in Nilaparvata lugens (brown planthopper) at 0.4 ppm measured after 7 days relative to control
Nilaparvata lugens [31] = experiment: Insecticidal activity against Nilaparvata lugens (brown planthopper) emerged female adult assessed as mortality at 0.0032 ppm measured after 7 days relative to control; conditions: 168 h
Nilaparvata lugens [32] = experiment: Effect on oviposition in Nilaparvata lugens (brown planthopper) assessed as eggs laid at 0.0032 ppm measured after 7 days relative to control
Nilaparvata lugens [33] = experiment: Insecticidal activity against Nilaparvata lugens (brown planthopper) assessed as mortality at 0.0000256 ppm measured after 7 days relative to control; conditions: 168 h
Nilaparvata lugens [34] = experiment: Effect on oviposition in Nilaparvata lugens (brown planthopper) assessed as eggs laid at 2 ppm measured after 7 days relative to control
Nilaparvata lugens [35] = experiment: Effect on oviposition in Nilaparvata lugens (brown planthopper) assessed as eggs laid at 0.0000256 ppm measured after 7 days relative to control
Nilaparvata lugens [36] = experiment: Effect on life span in Nilaparvata lugens (brown planthopper) adult at 0.4 ppm measured after 7 days relative to control
Nilaparvata lugens [37] = experiment: Insecticidal activity against Nilaparvata lugens (brown planthopper) assessed as mortality at 50 ppm measured after 7 days relative to control; conditions: 168 h
Nilaparvata lugens [38] = experiment: Insecticidal activity against Nilaparvata lugens (brown planthopper) fifth-instar nymphs assessed as mortality at 10 ppm measured after 7 days; conditions: 168 h
Nilaparvata lugens [39] = experiment: Effect on oviposition in Nilaparvata lugens (brown planthopper) assessed as eggs laid at 0.00064 ppm measured after 7 days relative to control
Nilaparvata lugens [40] = experiment: Effect on egg maturity in Nilaparvata lugens (brown planthopper) at 0.016 ppm measured after 7 days relative to control
Nilaparvata lugens [41] = experiment: Insecticidal activity against Nilaparvata lugens (brown planthopper) fifth-instar nymphs assessed as mortality at 0.000128 ppm measured after 7 days; conditions: 168 h
Nilaparvata lugens [42] = experiment: Insecticidal activity against Nilaparvata lugens (brown planthopper) assessed as mortality at 0.000128 ppm measured after 7 days relative to control; conditions: 168 h
Nilaparvata lugens [43] = experiment: Effect on oviposition in Nilaparvata lugens (brown planthopper) assessed as eggs laid at 0.000128 ppm measured after 7 days relative to control
Nilaparvata lugens [44] = experiment: Insecticidal activity against Nilaparvata lugens (brown planthopper) fifth-instar nymphs assessed as mortality at 0.0000256 ppm measured after 7 days; conditions: 168 h
Nilaparvata lugens [45] = experiment: Insecticidal activity against Nilaparvata lugens (brown planthopper) fifth-instar nymphs assessed as mortality at 0.08 ppm measured after 7 days; conditions: 168 h
Nilaparvata lugens [46] = experiment: Effect on life span in Nilaparvata lugens (brown planthopper) adult at 0.00064 ppm measured after 7 days relative to control
Nilaparvata lugens [47] = experiment: Insecticidal activity against Nilaparvata lugens (brown planthopper) emerged female adult assessed as mortality at 0.016 ppm measured after 7 days relative to control; conditions: 168 h
Nilaparvata lugens [48] = experiment: Effect on development of ovarioles in Nilaparvata lugens (brown planthopper) assessed as number of ovarioles at 0.00064 ppm measured after 7 days relative to control
Nilaparvata lugens [49] = experiment: Insecticidal activity against Nilaparvata lugens (brown planthopper) assessed as mortality at 0.0032 ppm measured after 7 days relative to control; conditions: 168 h
Nilaparvata lugens [50] = experiment: Insecticidal activity against Nilaparvata lugens (brown planthopper) fifth-instar nymphs assessed as mortality at 0.4 ppm measured after 7 days; conditions: 168 h
Nilaparvata lugens [51] = experiment: Insecticidal activity against Nilaparvata lugens (brown planthopper) emerged female adult assessed as mortality at 0.08 ppm measured after 7 days relative to control; conditions: 168 h
Nilaparvata lugens [52] = experiment: Insecticidal activity against Nilaparvata lugens (brown planthopper) emerged female adult assessed as mortality at 0.4 ppm measured after 7 days relative to control; conditions: 168 h
Nilaparvata lugens [53] = experiment: Effect on hatchability in Nilaparvata lugens (brown planthopper) at 10 ppm measured after 7 days relative to control

## CC(C)N1C(=O)N(c2ccccc2)CS/C1=N\C(C)(C)C [BUPROFEZIN]
Nilaparvata lugens [1]
  mortality at 2 ppm: 69%
Nilaparvata lugens [2]
  mortality at 50 ppm: 100%
Nilaparvata lugens [3]
  Activity: 98%
Nilaparvata lugens [4]
  Activity: 74%
Nilaparvata lugens [5]
  mortality at 0.00064 ppm: 0%
Nilaparvata lugens [6]
  mortality at 0.016 ppm: 0%
Nilaparvata lugens [7]
  mortality at 10 ppm: 57%
Nilaparvata lugens [8]
  Activity: 106%
Nilaparvata lugens [9]
  mortality at 0.016 ppm: 3%
Nilaparvata lugens [10]
  Activity: 97%
Nilaparvata lugens [11]
  mortality at 0.08 ppm: 9%
Nilaparvata lugens [12]
  Activity: 107%
Nilaparvata lugens [13]
  mortality at 10 ppm: 95%
Nilaparvata lugens [14]
  Activity: 0%
Nilaparvata lugens [15]
  mortality at 0.00064 ppm: 0%
Nilaparvata lugens [16]
  Activity: 98%
Nilaparvata lugens [17]
  mortality at 0.00064 ppm: 0%
Nilaparvata lugens [18]
  Activity: 28%
Nilaparvata lugens [19]
  mortality at 0.4 ppm: 19%
Nilaparvata lugens [20]
  Activity: 92%
Nilaparvata lugens [21]
  Activity: 79%
Nilaparvata lugens [22]
  mortality at 2.56e-05 ppm: 0%
Nilaparvata lugens [23]
  mortality at 0.0032 ppm: 0%
Nilaparvata lugens [24]
  mortality at 2 ppm: 69%
Nilaparvata lugens [25]
  mortality at 2 ppm: 0%
Nilaparvata lugens [26]
  Activity: 101%
Nilaparvata lugens [27]
  mortality at 0.000128 ppm: 11%
Nilaparvata lugens [28]
  Activity: 111%
Nilaparvata lugens [29]
  Activity: 96%
Nilaparvata lugens [30]
  Activity: 100%
Nilaparvata lugens [31]
  mortality at 0.0032 ppm: 0%
Nilaparvata lugens [32]
  Activity: 115%
Nilaparvata lugens [33]
  mortality at 2.56e-05 ppm: 0%
Nilaparvata lugens [34]
  Activity: 36%
Nilaparvata lugens [35]
  Activity: 97%
Nilaparvata lugens [36]
  Activity: 78%
Nilaparvata lugens [37]
  mortality at 50 ppm: 100%
Nilaparvata lugens [38]
  mortality at 10 ppm: 89%
Nilaparvata lugens [39]
  Activity: 88%
Nilaparvata lugens [40]
  Activity: 106%
Nilaparvata lugens [41]
  mortality at 0.000128 ppm: 0%
Nilaparvata lugens [42]
  mortality at 0.000128 ppm: 11%
Nilaparvata lugens [43]
  Activity: 117%
Nilaparvata lugens [44]
  mortality at 2.56e-05 ppm: 0%
Nilaparvata lugens [45]
  mortality at 0.08 ppm: 0%
Nilaparvata lugens [46]
  Activity: 106%
Nilaparvata lugens [47]
  mortality at 0.016 ppm: 3%
Nilaparvata lugens [48]
  Activity: 103%
Nilaparvata lugens [49]
  mortality at 0.0032 ppm: 0%
Nilaparvata lugens [50]
  mortality at 0.4 ppm: 7%
Nilaparvata lugens [51]
  mortality at 0.08 ppm: 9%
Nilaparvata lugens [52]
  mortality at 0.4 ppm: 13%

## CC1(C)[C@H](C(=O)O[C@H](C#N)c2cccc(Oc3ccccc3)c2)[C@@H]1C=C(Br)Br [DELTAMETHRIN]
Nilaparvata lugens [1]
  mortality at 2 ppm: 0%
Nilaparvata lugens [2]
  mortality at 50 ppm: 100%
Nilaparvata lugens [3]
  Activity: 98%
Nilaparvata lugens [4]
  Activity: 92%
Nilaparvata lugens [5]
  mortality at 0.00064 ppm: 0%
Nilaparvata lugens [6]
  mortality at 0.016 ppm: 0%
Nilaparvata lugens [7]
  mortality at 10 ppm: 0%
Nilaparvata lugens [8]
  Activity: 133%
Nilaparvata lugens [9]
  mortality at 0.016 ppm: 9%
Nilaparvata lugens [10]
  Activity: 94%
Nilaparvata lugens [11]
  mortality at 0.08 ppm: 2%
Nilaparvata lugens [12]
  Activity: 114%
Nilaparvata lugens [13]
  mortality at 10 ppm: 40%
Nilaparvata lugens [14]
  Activity: 101%
Nilaparvata lugens [15]
  mortality at 0.00064 ppm: 4%
Nilaparvata lugens [16]
  Activity: 110%
Nilaparvata lugens [17]
  mortality at 0.00064 ppm: 4%
Nilaparvata lugens [18]
  Activity: 112%
Nilaparvata lugens [19]
  mortality at 0.4 ppm: 9%
Nilaparvata lugens [20]
  Activity: 128%
Nilaparvata lugens [21]
  Activity: 124%
Nilaparvata lugens [22]
  mortality at 2.56e-05 ppm: 4%
Nilaparvata lugens [23]
  mortality at 0.0032 ppm: 0%
Nilaparvata lugens [24]
  mortality at 2 ppm: 4%
Nilaparvata lugens [25]
  mortality at 2 ppm: 4%
Nilaparvata lugens [53]
  Activity: 98%
Nilaparvata lugens [26]
  Activity: 102%
Nilaparvata lugens [27]
  mortality at 0.000128 ppm: 0%
Nilaparvata lugens [28]
  Activity: 112%
Nilaparvata lugens [29]
  Activity: 98%
Nilaparvata lugens [30]
  Activity: 113%
Nilaparvata lugens [31]
  mortality at 0.0032 ppm: 0%
Nilaparvata lugens [32]
  Activity: 136%
Nilaparvata lugens [33]
  mortality at 2.56e-05 ppm: 4%
Nilaparvata lugens [34]
  Activity: 109%
Nilaparvata lugens [35]
  Activity: 107%
Nilaparvata lugens [36]
  Activity: 125%
Nilaparvata lugens [37]
  mortality at 50 ppm: 100%
Nilaparvata lugens [38]
  mortality at 10 ppm: 40%
Nilaparvata lugens [39]
  Activity: 116%
Nilaparvata lugens [40]
  Activity: 131%
Nilaparvata lugens [41]
  mortality at 0.000128 ppm: 0%
Nilaparvata lugens [42]
  mortality at 0.000128 ppm: 0%
Nilaparvata lugens [43]
  Activity: 105%
Nilaparvata lugens [44]
  mortality at 2.56e-05 ppm: 0%
Nilaparvata lugens [45]
  mortality at 0.08 ppm: 2%
Nilaparvata lugens [46]
  Activity: 120%
Nilaparvata lugens [47]
  mortality at 0.016 ppm: 9%
Nilaparvata lugens [48]
  Activity: 102%
Nilaparvata lugens [49]
  mortality at 0.0032 ppm: 0%
Nilaparvata lugens [50]
  mortality at 0.4 ppm: 9%
Nilaparvata lugens [51]
  mortality at 0.08 ppm: 0%
Nilaparvata lugens [52]
  mortality at 0.4 ppm: 0%
